Measurements as given in patent publication US4973586A, “Fused benzazepines, compositions of, and medical use thereof” (Schering Corporation, priority 1988, dated 1990).
Structures can show the parent of a compound that is named as a salt. Where two headings read alike, the source gives them in different places.

Columns and labels:
dopamine D-1 receptor = biological target: T1, dopamine D-1 receptor (Rattus norvegicus, UniProt P18901); test: Competitive inhibition assay, displacement of 3H-SCH 23390 (D-1 receptor binding); parameters: species or system rat (male Sprague-Dawley, striatal tissue)
T1 construct: Striatal tissue was excised, pooled, and homogenized; from tissue; host or cells: rat striatum, washed membrane pellet (male Sprague-Dawley rats, Charles River)
T1 sequence (P18901 whole entry): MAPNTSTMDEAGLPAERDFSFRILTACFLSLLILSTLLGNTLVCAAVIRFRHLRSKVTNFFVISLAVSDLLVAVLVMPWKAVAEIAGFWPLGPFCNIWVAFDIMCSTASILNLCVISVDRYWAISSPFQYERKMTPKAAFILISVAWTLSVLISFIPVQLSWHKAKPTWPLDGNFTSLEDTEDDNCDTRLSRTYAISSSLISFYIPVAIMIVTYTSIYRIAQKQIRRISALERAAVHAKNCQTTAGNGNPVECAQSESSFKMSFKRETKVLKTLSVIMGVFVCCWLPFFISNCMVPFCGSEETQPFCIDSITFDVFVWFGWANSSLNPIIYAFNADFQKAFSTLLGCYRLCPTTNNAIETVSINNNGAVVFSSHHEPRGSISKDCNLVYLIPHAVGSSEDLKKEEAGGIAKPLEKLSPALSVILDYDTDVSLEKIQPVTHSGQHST
Text: (§1) Many compounds capable of effecting reproducible physiological changes in neural tissues are believed to operate by binding at one or more receptor sites.
(§2) A methodology for characterization of D-1 and D-2 receptor binding and an interpretation of the data are described by Billard et al., Life Sciences 35, 1885 (1984) in which the binding of the benzazepine (R)-(+)-8-chloro-2,3,4,5-tetrahydro-3-methyl-5-phenyl-1H- 3-benzazepin-7-ol hemimaleate (SCH 23390) to the dopamine D-1 receptor is characterized. A selectivity for D-1 receptor binding as compared to D-2 receptor binding is believed to confer the therapeutic advantage of avoiding troublesome and potentially irreversible neurological side effects associated with D-2 receptor occupancy.
(§3) Tritiated SCH 23390 and tritiated spiperone (a potent D-2 receptor ligand) were obtained as described in the Billard et al. reference supra and serially diluted in 0.05M Tris buffer, pH 7.4, as required. Compounds of this invention were synthesized as disclosed herein and diluted in 0.05M Tris buffer, pH 7.4, as required.
(§4) Male Sprague-Dawley rats (200 to 250 g) from Charles River Breeding Laboratories, Mass. were used to obtain brain tissue. The rats were humanely sacrificed and their brains removed and placed on ice. Striatal tissue was excised, pooled, and homogenized (Brinkman Polytron, 10 sec) in 100 volumes (w/v) of ice cold 50 mM Tris buffer, pH 7.4 (at 25° C.). The homogenate was centrifuged at 20,000 xg for 10 min. The resultant pellet was rehomogenized in Tris buffer and centrifuged again. The final pellet was resuspended in 50 mM Tris buffer pH 7.4 containing 120 mM NaCl, 5 mM KCl, 2 mM CaCl2, and 1 mM MgCl2.
(§5) Polypropylene incubation tubes received 100 μl of the individual test compounds at various concentrations dissolved or suspended in 0.05M Tris, pH 7.4 containing 4 mg/ml methylcellulose, 100 μl of a solution of ^3 H-SCH 23390 in Tris buffer (final reaction mixture concentration=0.3 nM) or 100 μl of a solution of ^3 H-spiperone in Tris buffer (final concentration=0.2 nM) and 800 μl of tissue suspension (ca. 3 mg/assay). Tubes were incubated at 37° C. for 15 minutes and rapidly vacuum filtered through Whatman GF/B filters and rinsed 4 times with 4 ml of ice cold 50 mM Tris buffer, pH 7.4. The filters were transferred to scintillation vials, equilibated with 10 ml of scintillant (Scintosol, Isolab, Inc.) for 16 hours at 25° C. and the radioactivity determined in a liquid scintillation counter. Ki values were determined as described by Billard et al. using the relationship Ki = IC50 /(1+([L]/KD)) wherein IC50 =concentration of test drug necessary to displace 50% of specifically bound ^3 H-Sch 23390, [L]=concentration of radioligand used in the assay, and KD =dissociation constant.

D-2 receptor = biological target: T2, D-2 receptor (Rattus norvegicus, UniProt P61169); test: Competitive inhibition assay, displacement of 3H-spiperone (D-2 receptor binding); parameters: species or system rat (male Sprague-Dawley, striatal tissue)
T2 construct: Striatal tissue was excised, pooled, and homogenized; from tissue; host or cells: rat striatum, washed membrane pellet (male Sprague-Dawley rats, Charles River)
T2 sequence (P61169 whole entry): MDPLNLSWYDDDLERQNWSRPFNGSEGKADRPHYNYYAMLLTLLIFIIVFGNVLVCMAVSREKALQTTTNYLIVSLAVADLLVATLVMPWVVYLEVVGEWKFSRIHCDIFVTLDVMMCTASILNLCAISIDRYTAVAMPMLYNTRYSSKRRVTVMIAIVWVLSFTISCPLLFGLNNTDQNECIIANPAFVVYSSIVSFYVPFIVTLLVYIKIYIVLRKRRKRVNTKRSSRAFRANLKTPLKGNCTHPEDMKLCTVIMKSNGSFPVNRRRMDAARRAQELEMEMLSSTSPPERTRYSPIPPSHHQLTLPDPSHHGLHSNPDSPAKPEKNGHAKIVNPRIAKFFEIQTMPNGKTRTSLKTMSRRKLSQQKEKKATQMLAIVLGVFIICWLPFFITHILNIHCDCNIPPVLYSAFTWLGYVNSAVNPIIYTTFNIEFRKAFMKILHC
Text: as §1, §2, §3, §4, §5

[1] = Conditioned avoidance suppression (CAR) in rats; format: in vivo; conditions: lowest dose significantly (P≤0.05) reducing avoidance responding, rat, in mg/kg
Procedure: A series of experiments was carried out to assess the ability of the compounds of this invention to suppress the conditioned avoidance response (CAR) in rats.
Rats were required to jump onto a platform located 6.75 inches (17.15 cm) above the grid floor of an experimental chamber in response to a 5-second tone to avoid a 10-second foot shock (0.6 ma). Each experimental session consisted of 20 such trials presented at 30-second intervals. A correct CAR is scored whenever the rat jumps onto the platform during the tone (prior to foot shock). An escape response is scored when the rat jumps onto the platform during a shock. A response failure is defined as the lack of an escape response during the 10-second shock period.
Groups of 6-8 rats were trained in two consecutive days (total of 40 trials). Rats that reached criterion on day 2 (correct CARs on 16 or more of the 20 trials) were treated with either a test drug or vehicle on day 3. Suppression of CAR was analyzed statistically using Student's t-test comparing the performance of rats on day 2 with their performance following drug on day 3.

[2] = Squirrel monkey conditioned avoidance response (CAR) test; format: in vivo; conditions: for MEAN (±SE) NUMBER OF […] 6 HOURS POST-TREATMENT: 10 mg/kg p.o., vehicle 59.1 + 0.9 (N=7); for ability to significantly decrease the number of avoidances six hours after dosing (duration): 10 mg/kg po, six hours prior to testing; for ED50: Primates, po
Text: This test was designed to measure the effective duration of candidate compounds.
Male or female squirrel monkeys weighing 800-1200 g housed one per cage were utilized. Initially each monkey was taught to terminate a 3 mA electric shock delivered through the grid floor of the test cage and an overlapping tone by depressing a lever in the cage.
In the second phase of the testing, a ten second tone is turned on prior to the shock component. A lever press during the sounding of the tone terminates the tone and prevents the occurrence of the shock component and is denoted as an "avoidance".
The compound testing was commenced after three consecutive days of re-testing. […] The monkey must achieve at least an 85% correct avoidance before drug testing commences. If this minimal avoidance level is achieved, the next day the monkey is orally dosed or injected with the subject compounds in the appropriate vehicle and the number of avoidances are recorded. An animal is defined as having been "affected" by any drug treatment if there is a 50% loss of avoidance behavior relative to the performance of the animal when only the vehicle was injected. The minimal effective dose (MED) is defined as that dose producing an effect in at least 50% of the animals.
A test was conducted to determine the effective duration of a compound of the present invention, 6,7,7a,8,9,13b-hexahydro-3-chloro-2-hydroxy-7-methyl-5H-benzo[ d]naphtho[2,1-b]azepine, denoted as Compound A, compared to a known compound, (d)-7-chloro-8-hydroxy-3-methyl-1-phenyl-2,3,4,5-tetrahydro-1h-3-benzazepine maleate, denoted as Compound B (Sch 23390)
The duration of each compound was determined by administering a 10 mg/kg po dose six hours prior to testing.

[3] = rat striatum, 3H-spiperone 0.2 nM, pH 7.4, 37° C., 15 min, read-out: Ki, 3H-Spip
[4] = rat striatum, 3H-SCH 23390 0.3 nM, pH 7.4, 37° C., 15 min, read-out: Ki, 3H-23390

Ki (dopamine D-1 receptor; [4]) [µM] | Structure (SMILES) | Ki (D-2 receptor; [3]) [µM] | Ki (D-2 receptor) [µM] | CAR (MED) ([1]; po) | further results
– | CN1CCc2cc(Cl)c(O)cc2[C@@H]2c3ccccc3C[C@H]21 (relative stereo) [CH2, 0, trans, Cl, OH, trans-5,6,7,7a,8,12b-Hexahydro-2-hydroxy-3-chloro-7-methyl-benz[d]indeno[2,1-b]azepine] | 2.6 | – | – | Ki (dopamine D-1 receptor): 0.01 µM
– | COc1cc2c(cc1O)CCN(C)[C@@H]1CCc3ccccc3[C@H]21 (relative stereo) [CH2, 1, cis, HO, CH3O] | – | > 100 | – | –
– | COc1cc2c(cc1O)[C@H]1c3ccccc3CC[C@@H]1N(C)CC2 (relative stereo) [CH2, 1, trans, CH3O, OH, trans-6,7,7a,8,9,13b-Hexahydro-2-hydroxy-3-methoxy-7-methyl-5H-benzo[d]naphtho[2,1-b]azepine] | – | 2.5 | 30 | Ki (dopamine D-1 receptor): 0.023 µM; CAR (MED) ([1]; sc): 0.3-1
– | CN1CCc2cc(Cl)c(N)cc2[C@H]2c3ccccc3CC[C@@H]21 (relative stereo) [CH2, 1, trans, Cl, NH2] | 4.17 | – | 3 | Ki (dopamine D-1 receptor): 0.07 µM
– | CN1CCc2cc(Cl)c(O)cc2[C@H]2c3ccccc3CC[C@@H]21 (relative stereo) [CH2, 1, trans, Cl, OH, trans-6,7,7a,8,9,13b-Hexahydro-3-chloro-2-hydroxy-7-methyl-5H-benzo[d]naphtho[2,1-b]azepine] | – | – | 30 | CAR (MED) ([1]; sc): 0.3
– | CN1CCc2ccc(O)cc2[C@H]2c3ccccc3CC[C@@H]21 (relative stereo) [CH2, 1, trans, H, OH, trans-6,7,7a,8,9,13b-Hexahydro-2-hydroxy-7-methyl-5H-benzo[d]naphtho[2,1-b]azepine] | 3.5 | – | – | Ki (dopamine D-1 receptor): 0.08 µM
– | COc1cc2c(cc1O)CCN(C)[C@H]1CCc3ccccc3[C@H]21 (relative stereo) [CH2, 1, trans, HO, CH3O, trans-6,7,7a,8,9,13b-Hexahydro-3-hydroxy-2-methoxy-7-methyl-5H-benzo[d]naphtho[2,1-b]azepine] | – | > 100 | – | –
0.292 | COc1cc2c(cc1O)[C@H]1c3ccccc3CCC[C@@H]1N(C)CC2 (relative stereo) [CH2, 2, trans, CH3O, OH] | > 100 | – | – | CAR (MED) ([1]; sc): 10
7.73 | COc1cc2c(cc1O)CCN(C)[C@H]1CCCc3ccccc3[C@H]21 (relative stereo) [CH2, 2, trans, HO, CH3O] | > 100 | – | – | CAR (MED) ([1]; sc): 10
0.121 | CN1CCc2ccc(O)cc2[C@@H]2c3ccccc3OC[C@H]21 (relative stereo) [O, 1, trans, H, OH, trans-6,6a,7,8,9,13b-Hexahydro-7-methyl-[1]benzopyrano[4,3-a][3]benzazepin-12-ol] | – | – | – | –
– | CN1CCc2cc(Cl)c(O)cc2[C@H]2c3ccccc3CC[C@@H]21 [CH2, 1, 7b(R):7a(S)(-), Cl, OH, (-)-trans-6,7,7a,8,9,13b-Hexahydro-3-chloro-2-hydroxy-7-methyl-5H-benzo[b]naphtho[2,1-b]azepine] | – | – | 30 | –
– | CN1CCc2cc(Cl)c(O)cc2[C@@H]2c3ccccc3CC[C@H]21 [CH2, 1, 7b(S):7a(R)(+), Cl, OH, (+)-trans-6,7,7a,8,9,13b-hexahydro-3-chloro-2-hydroxy-7-methyl-5H-benzo[d]naphtho[2,1-b]azepine] | – | – | > 30 | –
– | CN1CCc2cc(Cl)c(O)cc2C2c3ccccc3CCC21 (stereo not shown) [Compound A, 6,7,7a,8,9,13b-hexahydro-3-chloro-2-hydroxy-7-methyl-5H-benzo[d]naphtho[2,1-b]azepine] | – | – | – | MEAN (±SE) NUMBER OF […] 6 HOURS POST-TREATMENT [2]: 23.9 + 7.5; ability to significantly decrease the number of avoidances six hours after dosing (duration) [2]: significant decrease in the number of avoidances (≤0.05); ED50 ([2]; 1 h, administered 60 minutes prior to the test, read-out: ED50): ~1.6 mg/kg
– | CN1CCc2cc(Cl)c(O)cc2[C@@H](c2ccccc2)C1 [Compound B, (d)-7-chloro-8-hydroxy-3-methyl-1-phenyl-2,3,4,5-tetrahydro-1h-3-benzazepine maleate, reference compound] | – | – | – | MEAN (±SE) NUMBER OF […] 6 HOURS POST-TREATMENT [2]: 59.7 + 0.3; ability to significantly decrease the number of avoidances six hours after dosing (duration) [2]: inactive; ED50 ([2]; 0.5 h): 2.4 mg/kg

Structure (SMILES) | Ki (dopamine D-1 receptor; [4]) [µM] | Ki (D-2 receptor; [3]) [µM] | Ki (D-2 receptor) [µM] | CAR (MED) ([1]; po) | further results
COc1cc2c(cc1O)[C@H]1c3ccccc3CC[C@H]1N(C)CC2 (relative stereo) [CH2, 1, cis, CH3O, OH] | 6.45 | – | > 100 | – | –
Cc1cc2c(cc1O)[C@H]1c3ccccc3CC[C@@H]1N(C)CC2 (relative stereo) [CH2, 1, trans, CH3, OH, trans-6,7,7a,8,9,13b-hexahydro-2-hydroxy-3-methyl-7-methyl-5 H-benzo[d]naphtho[2,1-b]azepine] | 0.119 | – | 7.2 | – | –
